This is an account of results in patent US9790218B2, “Small molecule activators of calcium-activated chloride channels and methods of use” (The Regents of the University of California, priority 2011, dated 2017).

SMILES strings stand for the structures.

The target of the assay is T1, ENaC (Homo sapiens, UniProt P37088+P51168+P51170).
T1 construct: endogenous in cells; host or cells: primary human bronchial epithelial (HBE) cells at air-liquid interface
T1 sequence (P37088 1-669): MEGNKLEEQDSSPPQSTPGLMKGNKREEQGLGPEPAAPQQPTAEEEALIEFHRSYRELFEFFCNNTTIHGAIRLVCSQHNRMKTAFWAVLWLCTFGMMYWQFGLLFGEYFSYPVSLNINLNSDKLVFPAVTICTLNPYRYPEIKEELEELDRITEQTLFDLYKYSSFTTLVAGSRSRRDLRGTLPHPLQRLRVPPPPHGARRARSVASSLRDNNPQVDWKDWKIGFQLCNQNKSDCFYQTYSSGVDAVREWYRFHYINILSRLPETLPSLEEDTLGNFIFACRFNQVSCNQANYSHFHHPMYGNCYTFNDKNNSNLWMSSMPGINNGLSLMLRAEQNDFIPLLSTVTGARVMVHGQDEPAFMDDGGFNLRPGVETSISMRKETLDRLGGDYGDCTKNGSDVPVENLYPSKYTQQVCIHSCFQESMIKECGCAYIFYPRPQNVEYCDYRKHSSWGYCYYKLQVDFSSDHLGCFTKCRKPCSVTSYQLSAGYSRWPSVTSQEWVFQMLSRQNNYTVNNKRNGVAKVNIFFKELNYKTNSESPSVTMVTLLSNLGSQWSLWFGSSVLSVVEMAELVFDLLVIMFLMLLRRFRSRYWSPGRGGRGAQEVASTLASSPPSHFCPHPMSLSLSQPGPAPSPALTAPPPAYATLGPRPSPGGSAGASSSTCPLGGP
T1 sequence (P51168 1-640): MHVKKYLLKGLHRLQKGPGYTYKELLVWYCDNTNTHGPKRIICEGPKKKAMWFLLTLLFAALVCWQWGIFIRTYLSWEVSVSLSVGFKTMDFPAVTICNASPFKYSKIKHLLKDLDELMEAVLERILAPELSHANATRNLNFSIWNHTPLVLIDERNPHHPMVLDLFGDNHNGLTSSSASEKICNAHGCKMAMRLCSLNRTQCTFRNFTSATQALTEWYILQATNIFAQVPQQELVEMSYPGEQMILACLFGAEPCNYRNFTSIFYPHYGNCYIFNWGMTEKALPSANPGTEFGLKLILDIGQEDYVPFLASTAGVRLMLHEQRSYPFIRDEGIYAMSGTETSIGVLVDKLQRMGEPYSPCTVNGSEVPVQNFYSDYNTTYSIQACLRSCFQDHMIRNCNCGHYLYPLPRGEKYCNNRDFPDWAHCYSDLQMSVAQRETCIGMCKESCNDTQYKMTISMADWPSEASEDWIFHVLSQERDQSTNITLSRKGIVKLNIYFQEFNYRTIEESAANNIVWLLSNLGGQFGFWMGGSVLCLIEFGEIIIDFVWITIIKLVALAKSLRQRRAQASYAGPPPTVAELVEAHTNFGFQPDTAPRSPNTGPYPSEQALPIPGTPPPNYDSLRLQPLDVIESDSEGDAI
T1 sequence (P51170 1-649): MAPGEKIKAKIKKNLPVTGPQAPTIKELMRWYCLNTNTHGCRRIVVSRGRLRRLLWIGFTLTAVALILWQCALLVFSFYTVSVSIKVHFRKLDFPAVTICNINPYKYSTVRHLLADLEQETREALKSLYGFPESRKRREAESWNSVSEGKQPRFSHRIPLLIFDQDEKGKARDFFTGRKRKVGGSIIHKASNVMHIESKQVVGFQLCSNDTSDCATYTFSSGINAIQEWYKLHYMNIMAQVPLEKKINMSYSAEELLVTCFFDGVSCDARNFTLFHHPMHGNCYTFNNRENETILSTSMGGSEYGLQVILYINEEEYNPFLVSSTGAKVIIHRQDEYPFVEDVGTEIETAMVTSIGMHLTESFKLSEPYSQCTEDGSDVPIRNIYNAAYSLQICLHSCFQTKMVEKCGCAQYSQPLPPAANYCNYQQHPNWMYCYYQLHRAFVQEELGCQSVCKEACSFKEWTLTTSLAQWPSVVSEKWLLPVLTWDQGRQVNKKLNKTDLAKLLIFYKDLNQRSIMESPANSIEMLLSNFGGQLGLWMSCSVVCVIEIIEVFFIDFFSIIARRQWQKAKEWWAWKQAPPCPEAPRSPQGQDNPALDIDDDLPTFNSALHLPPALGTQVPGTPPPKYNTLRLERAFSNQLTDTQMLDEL
The assay is described as follows: ENaC Na^+ conductance in HBE cells. The conditions noted are these: 10 μM, 5 min pretreatment; amiloride 10 μM. Format: cell-based. How it is done: FIG. 2A-E. Characterization of TMEM16A activators. FIG. 2A. Cytoplasmic calcium measured by Fluo-4 fluorescence. 100 μM ATP (gray line) or 10 μM of indicated TMEM16A activators were added at the arrow. FIG. 2B. Apical membrane current measured in TMEM16A-expressing FRT cells in the presence of a transepithelial chloride gradient and after basolateral membrane permeabilization. […] T16Ainh-A01 (10 μM) added where indicated. […] (right) Concentration-activation data summary (mean±S.E., n=4-6). FIG. 2C. Synergistic effect of Eact and Fact. (left and center) Representative current traces showing synergy. (right) Data summary of low doses of TMEM16A activation (mean±S.E., n=5, * P<0.05). FIG. 2D. Apical membrane current measured in FRT cells transfected with mouse TMEM16A or TMEM16B. FIG. 2E. Effect of Eact and Fact on CFTR and ENaC. (left) FRT cells expressing wild type CFTR and YFP indicator were pretreated for 5 min with 10 μM Eact and Fact. Forskolin (10 μM) added as indicated. […]
Snapwell inserts containing TMEM16A-expressing FRT, HBE, CF HBE or HTG cells were mounted in Ussing chambers (Physiologic Instruments, San Diego, Calif.). […] Apical membrane current (for FRT cells) and short-circuit current were measured using an EVC4000 Multi-Channel V/I Clamp (World Precision Instruments, Sarasota, Fla.) and recorded using PowerLab/8sp (AD Instruments, Castle Hill, Australia).

With `O=C(Nc1ccc(Br)cc1)c1cccc(-n2cnnn2)c1` [Fact, N-(4-bromophenyl)-3-(1H-tetrazol-1-yl)benzamide], the “effect on ENaC Na^+ conductance” value was “Neither Eact nor Fact affected”.
